Data as given in paper PMC5680308, “Binding of mycotoxins to proteins involved in neuronal plasticity: a combined in silico/wet investigation” (Scientific Reports, 2017).
Like-named read-outs stand apart in the source and are kept apart here.

Legend:
[1] = molecular target: T1, Human recombinant neuroligin 4-X linked (NLGN4X) (Homo sapiens, UniProt Q8N0W4); assay: biochemical; format: binding; conditions: for Kd: read-out: dissociation constant (kD)
[2] = molecular target: T2, human recombinant acetylcholinesterase (AChE) (Homo sapiens, UniProt P22303); assay: Microscale thermophoresis (MST) assay; format: binding
T2 construct: purchased Sigma Aldrich (Milano, Italy)
T2 sequence (P22303 32-614): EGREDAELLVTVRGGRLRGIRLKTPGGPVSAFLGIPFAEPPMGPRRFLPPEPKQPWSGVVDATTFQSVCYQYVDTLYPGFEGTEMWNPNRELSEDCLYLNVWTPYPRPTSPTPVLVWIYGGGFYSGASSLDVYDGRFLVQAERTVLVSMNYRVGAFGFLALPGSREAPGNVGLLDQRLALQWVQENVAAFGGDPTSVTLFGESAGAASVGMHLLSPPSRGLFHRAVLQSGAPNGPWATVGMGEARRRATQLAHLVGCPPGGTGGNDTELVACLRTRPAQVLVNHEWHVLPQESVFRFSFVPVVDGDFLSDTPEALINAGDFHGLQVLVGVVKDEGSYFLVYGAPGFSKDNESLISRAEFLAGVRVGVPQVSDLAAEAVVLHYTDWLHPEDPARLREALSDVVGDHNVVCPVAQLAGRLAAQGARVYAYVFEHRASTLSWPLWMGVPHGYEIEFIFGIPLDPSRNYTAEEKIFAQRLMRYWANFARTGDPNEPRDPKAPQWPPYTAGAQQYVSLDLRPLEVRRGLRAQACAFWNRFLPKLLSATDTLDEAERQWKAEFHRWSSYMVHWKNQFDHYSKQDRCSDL

[3] = molecular target: T2, human recombinant acetylcholinesterase (AChE); assay: Fluorescence steady-state binding experiments (intrinsic Trp fluorescence); conditions: pH 7.4
[4] = molecular target: T1, Human recombinant neuroligin 4-X linked (NLGN4X); assay: Microscale thermophoresis (MST) assay; format: binding

T1 sequence (Q8N0W4 42-676 limits assumed): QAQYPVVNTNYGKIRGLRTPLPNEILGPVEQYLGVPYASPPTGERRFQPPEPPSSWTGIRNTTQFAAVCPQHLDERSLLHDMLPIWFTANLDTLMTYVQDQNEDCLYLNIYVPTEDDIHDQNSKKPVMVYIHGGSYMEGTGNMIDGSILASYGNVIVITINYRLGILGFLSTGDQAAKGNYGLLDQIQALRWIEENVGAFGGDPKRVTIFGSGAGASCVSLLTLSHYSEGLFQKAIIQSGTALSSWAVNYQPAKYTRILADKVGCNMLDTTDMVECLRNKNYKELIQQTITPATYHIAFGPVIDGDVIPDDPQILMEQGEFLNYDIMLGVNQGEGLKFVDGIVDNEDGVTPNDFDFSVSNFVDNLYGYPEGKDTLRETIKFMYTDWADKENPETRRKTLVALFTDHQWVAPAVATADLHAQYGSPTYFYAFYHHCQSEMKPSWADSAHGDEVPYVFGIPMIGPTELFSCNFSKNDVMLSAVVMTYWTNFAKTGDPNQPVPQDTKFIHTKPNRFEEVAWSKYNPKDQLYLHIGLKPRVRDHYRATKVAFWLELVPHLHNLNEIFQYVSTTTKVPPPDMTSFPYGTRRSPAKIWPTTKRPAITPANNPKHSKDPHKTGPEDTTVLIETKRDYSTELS

CC1=C[C@H]2O[C@@H]3[C@H](O)C[C@](C)([C@@]2(CO)[C@H](O)C1=O)[C@]31CO1 [Deoxynivalenol, deoxynivalenol]
quenching / decrease of the protein fluorescence emission intensity ([1]; pH 7.4): 17%

Aflatoxin B1
decrease of the fluorescence emission spectrum at increasing concentrations of the toxin [1]: did not show a significant decrease | Kd ([2]; pH 8): 8400 ± 694 nM | effect on Trp fluorescence emission at increasing toxin concentration [3]: a quenching effect was registered | interaction with the protein in MST ([4]; pH 7.4): no evidence of the interaction

COc1cc2c(c3oc(=O)c4c(c13)CCC4=O)[C@@H]1CCO[C@@H]1O2 [Aflatoxin B2, aflatoxin B2]
quenching / decrease of the protein fluorescence emission intensity ([1]; pH 7.4): about 11% | Kd ([1]; pH 7.4): 10.3 nM | interaction with the protein in MST [2]: did not confirm this prediction | Kd ([4]; pH 7.4, read-out: kD for the binding site at higher affinity): 56.6 nM

CN1C(=O)[C@]23CC4=CC=C[C@H](O)[C@H]4N2C(=O)[C@@]1(CO)SS3 [Gliotoxin, gliotoxin]
Kd ([1]; Trp fluorescence emission variation, PBS buffer pH 7.4, 25 °C, non-linear regression): 307 nM | quenching / decrease of the protein fluorescence emission intensity ([1]; pH 7.4): about 17% | interaction with the protein in MST ([2]; result in words, data not shown): did not confirm this prediction | Kd ([4]; MST, PBS buffer pH 7.4, 25 °C, read-out: kD): 1520 nM
